Assay [1] has as its system Trypanosoma brucei Lister 427 strain, bloodstream form. Briefly: Assay for proliferation of kinetoplastid parasite Trypanosoma brucei (Cell Titer Glo, 48 hours). The class given is cell-based. The note with it: Trypanosoma brucei, T. brucei Lister 427 bloodstream form, read-out: T. brucei EC50. The method, boiled down:
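Bloodstream-form T. brucei Lister 427 in HMI-9 medium was exposed to compound (DMSO vehicle) for 48 hours at 37° C, 5% CO2. Parasite growth was read as ATP by CellTiter-Glo luminescence, with EC50 calculated from percent inhibition.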
For orientation: ATP-based viability assays read luminescence as a measure of living cells.

The subject of assay [2] is Trypanosoma cruzi amastigotes (Tulahuen strain expressing Lac-Z) cultured in 3T3 fibroblast cells. Nature of the assay: microbe, parasite or virus in culture. The class given is cell-based. As to conditions: Trypanosoma cruzi, TULAHUEN, Fibroblast, T. cruzi amastigotes in 3T3 fibroblast cells, read-out: T cruzi EC50.
For assay [3], the system named is L. donovani HU3 strain in mouse peritoneal macrophages. Nature of the assay: Assay for proliferation of Leishmania parasites in infected mouse peritoneal macrophages (SybrGreen staining, high-content imaging, 5 days). As to conditions: Leishmania donovani, Peritoneal macrophage, L. donovani in mouse peritoneal macrophages, read-out: L. donovani Macrophage EC50. The class given is cell-based, Leishmania donovani.

Assay [4] concerns Leishmania donovani axenic amastigote parasites. Briefly: Leishmania donovani axenic amastigote proliferation assay (Cell TiterGlo luminescence, 2 day incubation). Type of assay: cell-based. As to conditions: Leishmania donovani, read-out: L. donovani amastigotes EC50.
Setting [5] is: axenic amastigotes, inhibition of proliferation.

For orientation: EC50 means the concentration at which the effect is half-maximal.

Each structure is given as a SMILES string. Like-named read-outs stand apart in the source and are kept apart here. Bounds are passed on as bounds.

For `CC(C)OC(=O)Nc1cnc2nc(-c3cc(NC(=O)C4CC4)ccc3Cl)cn2c1` [Compound 245], the 50% effective concentration (EC50) is 1400 nM in assay [1] (inhibition of proliferation), 1130 nM in assay [2] (inhibition of proliferation), 2030 nM in assay [3] (inhibition of proliferation) and 1690 nM in assay [4] (setting [5]).

In the case of `O=C1CC(C(=O)Nc2cnc3nc(-c4cc(NC(=O)N5CCCC5)ccc4F)cn3c2)C1` [Compound 141], the EC50 in assay [1] (inhibition of proliferation) was 1360 nM; in assay [2] (inhibition of proliferation), greater than 20000 nM; in assay [3] (inhibition of proliferation), 8280 nM; in assay [4] (setting [5]), 862 nM.

With `CN(C)C(=O)Nc1ccc(F)c(-c2cn3cc(-c4ccccc4)cnc3n2)c1` [Compound 323], the EC50 in assay [1] (inhibition of proliferation) amounted to 47 nM; in assay [2] (inhibition of proliferation) it was 46 nM; in assay [3] (inhibition of proliferation), 278 nM; in assay [4] (setting [5]), 97 nM.

For the compound `Cc1nc(C)c(C(=O)Nc2ccc(F)c(-c3cn4cc(C5CCNCC5)cnc4n3)c2)o1` [Compound 538, N-(4-fluoro-3-(6-(piperidin-4-yl)imidazo[1,2-a]pyrimidin-2-yl)phenyl)-2,4-dimethyloxazole-5-carboxamide], the EC50 in assay [1] came out at 613 nM; in assay [2], 447 nM; in assay [3], 1860 nM; in assay [4] (L. donovani axenic amastigotes), 2360 nM.

Consider `Cc1nc(C)c(C(=O)Nc2ccc(F)c(-c3cn4cc(NC(=O)[C@H]5NCC[C@@H]5O)cnc4n3)c2)o1` [Compound 160], for which the EC50 in assay [1] (inhibition of proliferation) was 28700 nM; in assay [2] (inhibition of proliferation) it was greater than 20000 nM; in assay [3] (inhibition of proliferation), greater than 50000 nM; in assay [4] (setting [5]), greater than 25000 nM.

For `Cc1nc(C)c(C(=O)Nc2ccc(F)c(-c3cn4cc(-c5ccc(CCO)cc5)cnc4n3)c2)o1` [Compound 349], the EC50 turned out to be 69 nM in assay [1] (inhibition of proliferation), 180 nM in assay [2] (inhibition of proliferation), 672 nM in assay [3] (inhibition of proliferation) and 74 nM in assay [4] (setting [5]).

`Cc1nc(C)c(C(=O)Nc2ccc(F)c(-c3cn4cc(-c5ncc(F)cc5C)cnc4n3)c2)o1` [Compound 430, N-(4-fluoro-3-(6-(5-fluoro-3-methylpyridin-2-yl)imidazo[1,2-a]pyrimidin-2-yl)phenyl)-2,4-dimethyloxazole-5-carboxamide]: the half-maximal effective concentration (EC50) is 52 nM in assay [1], 10 nM in assay [2], 59 nM in assay [3] and 31 nM in assay [4] (L. donovani axenic amastigotes).

Consider `O=C(Nc1ccc(F)c(-c2cn3cc(NC(=O)C4(O)CC4)cnc3n2)c1)N1CCCC1` [Compound 140], for which the EC50 in assay [1] (inhibition of proliferation) was 378 nM; in assay [2] (inhibition of proliferation), greater than 17600 nM; in assay [3] (inhibition of proliferation), 8380 nM; in assay [4] (setting [5]) it was 1270 nM.

Consider `C=C(C)c1cnc2nc(-c3cc(NC(=O)c4oc(C)nc4C)ccc3F)cn2c1` [Compound 537, N-(4-fluoro-3-(6-(prop-1-en-2-yl)imidazo[1,2-a]pyrimidin-2-yl)phenyl)-2,4-dimethyloxazole-5-carboxamide], for which the EC50 in assay [1] worked out at 164 nM; in assay [2], 103 nM; in assay [3] it was 286 nM; in assay [4] (L. donovani axenic amastigotes), 124 nM.

With `Nc1cc(-c2cnc3nc(-c4cc(NC(=O)N5CCCC5)ccc4F)cn3c2)ccn1` [Compound 342], the concentration giving a half-maximal response (EC50) turned out to be 364 nM in assay [1] (inhibition of proliferation), 9360 nM in assay [2] (inhibition of proliferation), 14600 nM in assay [3] (inhibition of proliferation) and 2140 nM in assay [4] (setting [5]).

As to `Cc1ncc(C(=O)Nc2cnc3nc(-c4cc(NC(=O)c5oc(C)nc5C)ccc4F)cn3c2)[nH]1` [Compound 190], the EC50 in assay [1] (inhibition of proliferation) was 244 nM; in assay [2] (inhibition of proliferation) it was 12200 nM; in assay [3] (inhibition of proliferation), 8480 nM; in assay [4] (setting [5]), 775 nM.

In the case of `Cc1nc(C)c(C(=O)Nc2ccc(F)c(-c3cn4cc(NC(=O)OC5CCCC5)cnc4n3)c2)o1` [Compound 306], the EC50 in assay [1] (inhibition of proliferation) came out at 360 nM; in assay [2] (inhibition of proliferation), 673 nM; in assay [3] (inhibition of proliferation) it was 835 nM; in assay [4] (setting [5]), 315 nM.

For the compound `CO[C@@H]1CCN(C(=O)Nc2ccc(Cl)c(-c3cn4cc(NC(=O)OC(C)C)cnc4n3)c2)C1` [Compound 265], the concentration for a half-maximal effect (EC50) came out at 1550 nM in assay [1] (inhibition of proliferation), 3930 nM in assay [2] (inhibition of proliferation), 4260 nM in assay [3] (inhibition of proliferation) and 978 nM in assay [4] (setting [5]).

Regarding `CC(C)OC(=O)Nc1cnc2nc(-c3cc(-n4cn[nH]c4=O)ccc3Cl)cn2c1` [Compound 535], the EC50 in assay [1] was 31100 nM; in assay [2], greater than 20000 nM; in assay [3], greater than 35500 nM; in assay [4] (L. donovani axenic amastigotes) it was greater than 25000 nM.

`CC(C)OC(=O)Nc1cnc2nc(-c3cc(NC(N)=O)ccc3Cl)cn2c1` [Compound 252]: the concentration for a half-maximal effect (EC50) in assay [1] (inhibition of proliferation) was 33000 nM; in assay [2] (inhibition of proliferation), greater than 20000 nM; in assay [3] (inhibition of proliferation), greater than 50000 nM; in assay [4] (setting [5]) it was greater than 25000 nM.

For the compound `Cc1nc(C)c(C(=O)Nc2ccc(F)c(-c3cn4cc(C(F)(F)F)cnc4n3)c2)o1` [Compound 200], the EC50 in assay [1] (inhibition of proliferation) amounted to 164 nM; in assay [2] (inhibition of proliferation) it was 147 nM; in assay [3] (inhibition of proliferation), 631 nM; in assay [4] (setting [5]) it was 219 nM.

Consider `O=C(Nc1ccc(F)c(-c2cn3cc(C4=CCCC4)cnc3n2)c1)N1CCCC1` [Compound 354], for which the half-maximal effective concentration (EC50) was found to be 4 nM in assay [1] (inhibition of proliferation), 8 nM in assay [2] (inhibition of proliferation), 103 nM in assay [3] (inhibition of proliferation) and 26 nM in assay [4] (setting [5]).

Take `CC(C)OC(=O)Nc1cnc2nc(-c3cc(NC(=O)N4CC[C@@H](F)C4)ccc3F)cn2c1` [Compound 229]: the EC50 worked out at 776 nM in assay [1] (inhibition of proliferation), 11000 nM in assay [2] (inhibition of proliferation), 2820 nM in assay [3] (inhibition of proliferation) and 884 nM in assay [4] (setting [5]).

Take `O=C(Nc1ccc(F)c(-c2cn3cc(Cl)cnc3n2)c1)N1CC(F)C1` [Compound 238]: the EC50 in assay [1] (inhibition of proliferation) is 117 nM; in assay [2] (inhibition of proliferation), 233 nM; in assay [3] (inhibition of proliferation), 788 nM; in assay [4] (setting [5]), 208 nM.

On to `Cc1nc(C)c(C(=O)Nc2ccc(F)c(-c3cn4cc(-c5cnn(C6CCN(C(=O)OC(C)(C)C)CC6)c5)cnc4n3)c2)o1` [Compound 384], for which the half-maximal effective concentration (EC50) in assay [1] amounted to 143 nM; in assay [2] it was 115 nM; in assay [3], 616 nM; in assay [4] (L. donovani axenic amastigotes), 95 nM.

For the compound `CC(C)OC(=O)Nc1cnc2nc(-c3cc(NC(=O)c4ccc(Cl)s4)ccc3F)cn2c1` [Compound 66], the EC50 is 1840 nM in assay [1] (inhibition of proliferation), 444 nM in assay [2] (inhibition of proliferation), 16100 nM in assay [3] (inhibition of proliferation) and 2810 nM in assay [4] (setting [5]).

Turning to `Cc1nc(C)c(C(=O)Nc2ccc(F)c(-c3cn4cc(C5CCN(C(=O)OC(C)(C)C)CC5)cnc4n3)c2)o1` [Compound 425, tert-butyl 4-(2-(5-(2,4-dimethyloxazole-5-carboxamido)-2-fluorophenyl)imidazo[1,2-a]pyrimidin-6-yl)piperidine-1-carboxylate], the half-maximal effective concentration (EC50) in assay [1] is 97 nM; in assay [2], 50 nM; in assay [3], 198 nM; in assay [4] (L. donovani axenic amastigotes), 140 nM.

As to `CC(C)OC(=O)Nc1cnc2nc(-c3cc(NC(=O)N(C(C)C)C(C)C)ccc3F)cn2c1` [Compound 228], the EC50 was 34500 nM in assay [1] (inhibition of proliferation), 9990 nM in assay [2] (inhibition of proliferation), 19500 nM in assay [3] (inhibition of proliferation) and greater than 25000 nM in assay [4] (setting [5]).

Turning to `COCCOc1cnc2nc(-c3cc(NC(=O)c4oc(C)nc4C)ccc3F)cn2c1` [Compound 547, N-(4-fluoro-3-(6-(2-methoxyethoxy)imidazo[1,2-a]pyrimidin-2-yl)phenyl)-2,4-dimethyloxazole-5-carboxamide], the concentration giving a half-maximal response (EC50) in assay [1] turned out to be 607 nM; in assay [2], 1360 nM; in assay [3], 4530 nM; in assay [4] (L. donovani axenic amastigotes), 856 nM.

Turning to `CC1(C(=O)Nc2cnc3nc(-c4cc(NC(=O)N5CCCC5)ccc4F)cn3c2)CC1` [Compound 133], the EC50 in assay [1] (inhibition of proliferation) worked out at 19 nM; in assay [2] (inhibition of proliferation), 1840 nM; in assay [3] (inhibition of proliferation), 607 nM; in assay [4] (setting [5]), 97 nM.

For the compound `O=C(Nc1ccc(F)c(-c2cn3cc(Cl)cnc3n2)c1)N1CC[C@@H](F)C1` [Compound 236], the concentration giving a half-maximal response (EC50) in assay [1] (inhibition of proliferation) worked out at 36 nM; in assay [2] (inhibition of proliferation), 98 nM; in assay [3] (inhibition of proliferation), 434 nM; in assay [4] (setting [5]), 95 nM.

Turning to `CC(C)OC(=O)N(C)c1cnc2nc(-c3cc(NC(=O)c4ccc(Cl)o4)ccc3F)cn2c1` [Compound 550, isopropyl (2-(5-(5-chlorofuran-2-carboxamido)-2-fluorophenyl)imidazo[1,2-a]pyrimidin-6-yl)(methyl)carbamate], the EC50 in assay [1] was 78 nM; in assay [2], 42 nM; in assay [3] it was 516 nM; in assay [4] (L. donovani axenic amastigotes), 176 nM.

For `O=C(Nc1cnc2nc(-c3cc(NC(=O)N4CCCC4)ccc3F)cn2c1)C1CC1` [Compound 134], the EC50 is 73 nM in assay [1] (inhibition of proliferation), 5200 nM in assay [2] (inhibition of proliferation), 8360 nM in assay [3] (inhibition of proliferation) and 267 nM in assay [4] (setting [5]).

In the case of `Cc1nc(C)c(C(=O)Nc2ccc(F)c(-c3cn4cc(-c5cn(C)cn5)cnc4n3)c2)o1` [Compound 426, N-(4-fluoro-3-(6-(1-methyl-1H-imidazol-4-yl)imidazo[1,2-a]pyrimidin-2-yl)phenyl)-2,4-dimethyloxazole-5-carboxamide], the EC50 in assay [1] worked out at 378 nM; in assay [2], 124 nM; in assay [3] it was 182 nM; in assay [4] (L. donovani axenic amastigotes), 16 nM.

Regarding `Cc1nc(C)c(C(=O)Nc2cnc3nc(-c4cc(NC(=O)N5CCCC5)ccc4F)cn3c2)o1` [Compound 123], the EC50 in assay [1] (inhibition of proliferation) is 414 nM; in assay [2] (inhibition of proliferation), greater than 20000 nM; in assay [3] (inhibition of proliferation), greater than 50000 nM; in assay [4] (setting [5]) it was 423 nM.

As for `CC(C)(C)OC(=O)N1CCC(Oc2ccc(-c3cnc4nc(-c5cc(NC(=O)N6CCCC6)ccc5Cl)cn4c3)cc2)CC1` [Compound 345], the 50% effective concentration (EC50) came out at 527 nM in assay [1] (inhibition of proliferation), 408 nM in assay [2] (inhibition of proliferation), 955 nM in assay [3] (inhibition of proliferation) and 251 nM in assay [4] (setting [5]).

Values taken from patent US20160045505A1, “COMPOUNDS AND COMPOSITIONS FOR THE TREATMENT OF PARASITIC DISEASES” (NOVARTIS AG, priority 2013, published 2016).
